Laboratory results as given in patent US9464064B2, “HCV helicase inhibitors and methods of use thereof” (University of Kansas, priority 2011, dated 2016).

Biological target: T1, HCV NS3 helicase NS3h_1b(con1) (Hepatitis C virus genotype 1b, UniProt Q9WMX2)
T1 construct: truncated C-terminally His-tagged NS3 proteins lacking the N-terminal protease, called NS3h; His-tag (C); made in house
Assay: MBHA screen of NCI mechanistic set library at 20 μM (percent inhibition, compound interference)
Format: biochemical
Settings: compounds at 20 μM; for Inh. (%) (Inhibition): calculated from Equation 1
In short: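 Molecular beacon-based DNA unwinding assay; compounds screened at 20 μM in triplicate, with DMSO-only negative and 500 nM dT20 positive controls. Fluorescence (ex 643/em 670 nm) was read before and 30 min after adding ATP to 1 mM. Percent inhibition came from the change relative to DMSO controls; interference from pre-ATP fluorescence versus DMSO controls.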

[1] = assay interference calculated with Equation 2 (fluorescence vs DMSO-only controls before ATP)
[2] = MBHA with DNA substrate, assay interference calculated with Equation 2

T1 sequence (Q9WMX2 1192-1657): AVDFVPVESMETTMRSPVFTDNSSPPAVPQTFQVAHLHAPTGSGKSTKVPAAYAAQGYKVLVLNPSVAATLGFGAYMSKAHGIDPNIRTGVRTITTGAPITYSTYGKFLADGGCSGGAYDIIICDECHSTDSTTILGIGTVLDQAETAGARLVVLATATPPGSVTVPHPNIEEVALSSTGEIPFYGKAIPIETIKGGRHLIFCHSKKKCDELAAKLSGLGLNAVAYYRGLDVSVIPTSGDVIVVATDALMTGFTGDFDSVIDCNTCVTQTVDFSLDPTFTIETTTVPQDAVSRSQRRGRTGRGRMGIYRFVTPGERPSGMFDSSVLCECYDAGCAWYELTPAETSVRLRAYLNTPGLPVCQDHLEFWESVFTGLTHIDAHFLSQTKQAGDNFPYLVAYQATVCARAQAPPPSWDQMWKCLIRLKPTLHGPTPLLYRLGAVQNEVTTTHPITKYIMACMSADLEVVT

SMILES	Inh. (%) (Inhibition) (MBHA with a DNA substrate)	Int.* (Ratio) (Interference) [1]	Int.* (Ratio) (Interference) [2]	Inh. (%) (Inhibition) (MBHA with DNA substrate)
Oc1[nH]c2ccccc2c1N=Nc1nc(-c2ccc(Br)cc2)cs1 [Compound 657456]	−6.1	0.85	–	–
O=C(N=Nc1c(O)[nH]c2c(Cl)cc(Cl)cc12)c1ccccc1O [Compound 320864]	–	–	0.80	4.4
Cc1ccc(NC(=S)C#N)c(C)c1 [Compound 369318]	–	–	0.95	−0.4
O=S(=O)(O)c1cc(N=Nc2cc(S(=O)(=O)O)c3cccnc3c2O)ccc1/C=C/c1ccc(N=Nc2cc(S(=O)(=O)O)c3cccnc3c2O)cc1S(=O)(=O)O [Compound 638352]	–	–	0.89	56.2
CN1C(Cl)=NS(=O)(=O)c2ccccc21 [Compound 373853]	–	–	0.92	5.1
COC(=O)c1c[nH]c2c1-c1cc(C(=O)OCc3ccccc3)n(S(=O)(=O)c3ccc(C)cc3)c1C(=O)C2=O [Compound 679524]	–	–	0.85	−2.5
CCNCCCCNCCCCNCCCCNCCCCNCC.Cl [Compound 640506]	–	–	0.91	71.1
[O-][S+]1c2ccccc2N=C(c2cccc3ccccc23)CC1c1cccc2ccccc12 (stereo not shown) [Compound 634926]	–	–	0.92	−14.5
CC(C)(O)C=CC(=O)C(C)(O)C1C(O)CC2(C)C3CC=C4C(C=C(O)C(=O)C4(C)C)C3(C)C(=O)CC12C (stereo not shown) [Compound 521777]	–	–	0.90	5.8
CN(C)C(=S)SSC(=S)N(C)C [Compound 1771]	–	–	0.98	0.2
CC(=O)[O][Hg][c]1c(C)c(C)c(C)c(C)c1C [Compound 174176]	–	–	1.04	6.0
O=S(=O)(O)SC/C=C/CSS(=O)(=O)O [Compound 624161]	–	–	1.03	−8.2
O=C(Nc1ccc2c(c1)oc(=O)c1ccccc12)C(Cl)Cl [Compound 65937]	–	–	1.01	−9.8
N#CC1=C(N)Oc2c(ccc3cccnc23)C1c1ccccc1 (stereo not shown) [Compound 631583]	–	–	0.98	5.1
O=C(CC1(O)C(=O)Nc2c(Cl)ccc(Cl)c21)c1ccc(Cl)cc1 (stereo not shown) [Compound 635437]	–	–	0.92	0.1
Nc1nc(SCc2ccccc2Cl)c2ncn(C3OC(CO)C(O)C3O)c2n1 (stereo not shown) [Compound 40666]	−2.9	1.09	–	–
CC(=O)O[C@]1(C(C)=O)CC[C@H]2[C@@H]3C[C@H](C)C4=CC(=O)C=C[C@]4(C)[C@@]3(F)[C@@H](O)C[C@@]21C [Compound 47438]	–	–	1.18	−12.2
O=C1NC(c2cccc3ccccc23)Nc2ccccc21 (stereo not shown) [Compound 145669]	–	–	1.14	14.8
COc1cc2c[n+](C)c3c4cc5c(cc4ccc3c2cc1OC)OCO5 [Compound 146397]	–	–	0.67	34.3
CCN(CC)CCNc1ccc(CO)c2sc3ccccc3c(=O)c12 [Compound 142982]	–	–	0.75	53.1
CN(Cc1cnc2nc(N)nc(N)c2n1)c1ccc(C(=O)NC(CCC(=O)O)C(=O)O)c2ccccc12 (stereo not shown) [Compound 174121]	–	–	0.91	−13.1

SMILES	Inh. (%) (Inhibition) (MBHA with a DNA substrate)	Int.* (Ratio) (Interference) [1]	Int.* (Ratio) (Interference) [2]	Inh. (%) (Inhibition) (MBHA with DNA substrate)
CCCCCCCCCCCCC(O)C(=O)O (stereo not shown) [Compound 18938]	–	–	1.06	1.7
Br.CN(C)c1nc(=NCc2ccco2)ss1 [Compound 622608]	–	–	1.01	−2.1
CSCC(CO)NC(=O)/C=C/c1c(C)[nH]c(=O)[nH]c1=O (stereo not shown) [Compound 233872]	–	–	1.00	17.4
C=C(C)[C@@H]1CC[C@]2(C(=O)O)CC[C@]3(C)[C@H](CC[C@@H]4[C@@]5(C)CC[C@H](O)C(C)(C)[C@@H]5CC[C@]43C)[C@@H]12 [Compound 113090]	−29.5	1.00	–	–
Cn1ncc2cc3c(Nc4ccc(Cl)cc4)cccc3nc21 [Compound 622732]	–	–	0.92	27.4
CC(C)[Si]1(C(C)C)OCC2OC(n3cnc4c(N)ncnc43)C(N)C2O[Si](C(C)C)(C(C)C)O1 (stereo not shown) [Compound 687330]	–	–	0.91	−12.1
CN(C)CCCN1c2ccc3ccccc3c2Sc2cccc(Cl)c21 [Compound 24113]	11.0	0.81	–	–
C[C@H](CSC(=O)c1ccccc1)C(=O)N1c2ccccc2C[C@H]1C(=O)O [Compound 604535]	–	–	1.08	1.0
CCOc1ccccc1NC(=O)CC1Sc2ccccc2NC1=O (stereo not shown) [Compound 637680]	–	–	0.91	21.2
Cc1ccc(S(=O)(=O)ON=C2CC(c3ccccc3)N(C)C(c3ccccc3)C2)cc1 (stereo not shown) [Compound 351306]	–	–	0.92	25.4
O=C1N[C@@H]2C(=C[C@H](O)[C@@H](O)[C@H]2O)c2cc3c(cc21)OCO3 [Compound 349155]	–	–	0.98	4.1
CCN(CC)Cc1cc(N=Nc2c(O)ccc3c(N=Nc4ccc(O)c(CN(CC)CC)c4)c(O)ccc23)ccc1O.Cl [Compound 359463]	7.3	0.45	–	–
CC[C@@]12CCCN3CC[C@]4(c5cccc(OC)c5N(C(C)=O)[C@@H]4CC1)[C@H]32 [Compound 61811]	–	–	0.91	−2.8
CC(=O)C1=C(O)C2(O)C(=O)c3c(c(C)c4ccc(C)c(O)c4c3O)CC2C(N)C1=O.CCCCCCCCCCCCOS(=O)(=O)O (stereo not shown) [Compound 73495]	−5.1	1.01	–	–
CN(C)c1ccc(/C=C/C(=O)[O-])cc1.CN(C)c1ccc(/C=C/C(=O)[O-])cc1.[Cu+2] [Compound 643351]	−20.4	0.89	–	–
Nc1ccccc1C(=O)NC(=O)Nc1ccc(Oc2ncc(Br)cn2)c(Cl)c1 [Compound 639828]	–	–	1.05	23.0
CN(C)CCCN1c2ccccc2Sc2ccc3ccccc3c21 [Compound 18891]	−4.0	0.89	–	–
CN(C)[C@@H]1C(=O)C(C(N)=O)=C(O)[C@@]2(O)C(=O)C3=C(O)c4c(O)cccc4C[C@H]3C[C@@H]12 [Compound 51812]	–	–	0.99	−8.1
O=C1Oc2ccccc2C(=O)/C1=C1\C=C(c2ccccc2)SS1 [Compound 293927]	–	–	1.00	−14.7
COc1cc(C2c3cc4c(cc3C(O)C3COC(=O)C23)OCO4)cc(OC)c1OC (stereo not shown) [Compound 24818]	–	–	1.07	−2.7
